Assays:
Type in all cases: cell-based
[1] = biological target: T1, OR10J5 olfactory receptor (Homo sapiens, UniProt Q8NHC4); assay: Dose-response confirmation of enhancer candidates, alone and with EC20 LYRAL®; conditions: response to LYRAL® raised beyond EC20 without measurable intrinsic activity
T1 construct: Flag; Rho (rhodopsin-derived tag); expressed in transfected cells
T1 sequence (Q8NHC4 1-309): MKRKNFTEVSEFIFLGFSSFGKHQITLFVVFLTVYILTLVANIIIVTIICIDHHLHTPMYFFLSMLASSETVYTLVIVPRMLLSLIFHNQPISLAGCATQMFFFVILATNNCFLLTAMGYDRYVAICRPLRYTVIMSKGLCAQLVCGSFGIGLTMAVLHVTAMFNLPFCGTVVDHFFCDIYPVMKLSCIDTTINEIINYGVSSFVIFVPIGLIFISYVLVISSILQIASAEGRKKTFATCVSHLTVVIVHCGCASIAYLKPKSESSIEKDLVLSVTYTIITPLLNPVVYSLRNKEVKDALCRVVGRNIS
Experimental: (§1) A dose response curve showing the activation of OR10J5 in response to the floral muguet compound 3-(4-hydroxy-4-methylpentyl)cyclohex-3-ene-1-carbaldehyde, 4-(4-hydroxy-4-methylpentyl)cyclohex-3-ene-1-carbaldehyde or a mixture thereof (sold under the tradename LYRAL®, hereinafter referred to as “LYRAL®”) is shown in FIG. 1. Using a cell-based assay, OR10J5 activity was tested in a HEK293T cell line wherein the endogenous chaperone RTP1 gene has been activated and the odorant receptor chaperone was expressed according to the methods disclosed in International Patent Application Publication No. WO2016/201153 A1. The Flag-Rho-tagged receptor was co-transfected with the olfactory canonical G-protein Golf and was exposed to a binary mixture of a single concentration of LYRAL® and a test compound.
(§2) A library of volatile compounds was used to create binary mixtures of each compound with LYRAL® at approximately EC20, a concentration eliciting only approximately 20% of full activity level of OR10J5 by itself. An activation cell-based assay was used for the initial enhancer candidate identification as disclosed in WO2019122236. Single binary mixture-induced receptor activity was detected by measuring the cAMP increase in the cytosol using an HTRF (Homogenous Time-Resolved Fluorescence unit) based kit (CisBio, cAMP dynamic 2 kit, 62AM4PEJ).
The 37 candidates remaining in Table 2 were identified and were tested in two parallel dose-response experiments to confirm the true enhancement properties of the potential candidates. First, a dose-response of each individual candidate was performed to determine if it was an agonist by itself. Second, the same candidate dose-response curve in the presence of EC20 LYRAL® concentration (generating 20% activity on OR10J5) was assessed for activity level increase.

OR10J5 [2] = biological target: T2, OR10J5 (Homo sapiens, UniProt Q8NHC4); assay: LYRAL® dose-response with serial enhancer concentrations, allosteric EC50 shift model; conditions: for α (cooperativity factor): enhancer 0 to 600 μM, allosteric EC50 shift equation (Prism7), α>1 indicates positive allosteric modulation; for Kb: read-out: KB (equilibrium dissociation constant of the enhancer)
T2 construct: Flag; Rho (rhodopsin-derived tag); expressed in transfected cells
T2 sequence (Q8NHC4 1-309): T1 sequence (Q8NHC4 1-309)
Experimental: Functional dose-response experiments were performed to reveal the allosteric nature of the interaction between 3-(1,3-benzodioxol-5-yl)-2-methylpropanal, 3-(4-methylcyclohex-3-en-1-yl)butanal, 2,6-dimethylhept-5-enal and heptanal and OR10J5. The level of enhancement of OR10J5's activation was evaluated at distinct concentrations of each enhancer. Using the same cell-based assay described earlier, dose response curves of OR10J5 to LYRAL® in the presence of serial concentrations of the enhancers spanning from 0 to 600 μM were performed, see FIG. 5. The curves were obtained by applying the simplified Allosteric EC50 shift effect equation (available in Prism7) derived from the ternary complex interaction model. The enhancement levels recorded were not linearly dependent on the concentration of the enhancer, and the following key parameters values for α (the cooperativity factor) and KB (the equilibrium dissociation constant of the enhancer) were obtained from the model for each enhancer: 3-(1,3-benzodioxol-5-yl)-2-methylpropanal, α=6.3 and KB=10 μM; 3-(4-methylcyclohex-3-en-1-yl)butanal, α=7.5 and KB=15 μM; 2,6-dimethylhept-5-enal, α=4.1 and KB=16 μM; and heptanal; α=3.2 and KB=51 μM. α>1 is indicative of positive allosteric modulation.

OR10J5 [3] = biological target: T2, OR10J5; assay: (+−)-2,5-dimethyl-2-indanmethanol dose-response with a steady concentration of test compound
Experimental: OR10J5 activity enhancement was tested with an additional agonist and with one of the test compounds and conditions described in the Examples above. Dose response curves to (+−)-2,5-dimethyl-2-indanmethanol was obtained in the presence of a steady concentration of the test compound and compared to a dose-response curve of the agonist alone. The resulting enhancement was quantified by means of EC50-fold shift (potency increase) and the efficacy span ratio (efficacy increase) as described above.

OR10J5 [4] = biological target: T2, OR10J5; assay: LYRAL® dose-response with a steady concentration of test compound (EC50-fold shift); conditions: LYRAL® + steady concentration of compound vs LYRAL® alone
Experimental: as §1
(§3) LYRAL® enhancement specificity was tested on compounds that were structurally similar to enhancers identified. Dose response curves to LYRAL® were obtained in the presence of a steady concentration of a test compound and compared to a dose-response curve of LYRAL® alone. The resulting enhancement was quantified by means of EC50-fold shift (potency increase) and the efficacy span ratio (efficacy increase).
The EC50-fold shift was obtained by dividing the EC50 of LYRAL®+compound by the reference EC50 of LYRAL® alone. […]

Olfr16 = biological target: T3, Olfr16 (Mus musculus, UniProt Q62007); assay: as above; conditions: Olfr16 (mouse ortholog); LYRAL® + steady concentration of compound vs LYRAL® alone
T3 construct: expressed in transfected cells
T3 sequence (Q62007 1-309): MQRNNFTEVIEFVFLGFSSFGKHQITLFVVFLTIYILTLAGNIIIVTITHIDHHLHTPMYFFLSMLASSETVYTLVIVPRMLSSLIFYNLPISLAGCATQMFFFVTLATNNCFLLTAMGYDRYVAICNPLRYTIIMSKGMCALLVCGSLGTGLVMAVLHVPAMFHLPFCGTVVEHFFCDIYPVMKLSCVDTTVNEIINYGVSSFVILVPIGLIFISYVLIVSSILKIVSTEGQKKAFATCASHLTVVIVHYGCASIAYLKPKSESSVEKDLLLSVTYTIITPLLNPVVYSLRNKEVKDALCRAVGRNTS
Experimental: as §3
The EC50-fold shift was obtained by dividing the EC50 of LYRAL®+compound by the reference EC50 of LYRAL® alone. The span ratio was obtained by dividing the span of LYRAL®+compound by the reference span of LYRAL® alone.

[5] = biological target: T1, OR10J5 olfactory receptor; assay: Inhibition of LYRAL® (EC80)-induced receptor activity, screen and dose-response; conditions: dose-response in the presence of EC80 LYRAL®
Experimental: Using the same cell-based assay described herein, OR10J5 activity inhibition was tested with binary mixtures of LYRAL® and a test compound. Volatile compounds were used to create binary mixtures of each compound with LYRAL® at approximately EC80, a concentration eliciting approximately 80% of full activity level of OR10J5 by itself. An activation cell-based assay was used for the initial inhibitor candidate identification as disclosed in WO2019101813.
The binary mixtures were created by mixing a LYRAL® stock solution with a stock solution of each test compound to a final concentration XXX and 300 μM, respectively. Stock solutions were made of compounds dissolved in pure DMSO. Each mixture was presented to a cell line expressing the OR10J5 olfactory receptor. Similar to the enhancement screening conditions, the final concentration of DMSO in each binary mixture was 0.1%, and had no visible effect on the cells. The resulting activation was measured and compared to LYRAL® alone (defining the activity baseline of the assay, ˜EC80). […] The quality of the HTS process was determined and the window (activity range between EC80 and the DMSO baseline) variability and signal reliability were assessed by calculating the Z′ value of each plate.
Candidate inhibitors identified were tested in a dose-response inhibition experiments to confirm the inhibition properties of the potential candidates. The dose-response curve in the presence of EC80 LYRAL® concentration (generating 80% activity on OR10J5) was assessed for dose-dependent activity level decrease. […] Both potency and efficacy of the confirmed inhibitors were evaluated by calculating their half-maximal inhibition concentration (IC50) relative to EC80 LYRAL and the amount of inhibition (Span), respectively. The IC50 values indicate the inhibition level with respect to the potency. The Span values indicate the inhibition level with respect to the inhibition efficacy. The IC50 values are used to rank order the compounds from strongest to weakest inhibitors of OR10J5 (FIG. 9a-d).

[6] = biological target: T1, OR10J5 olfactory receptor; assay: Single-point binary mixture enhancement screen (LYRAL® at about EC20 + test compound), cAMP HTRF; conditions: binary mixture of 4.6 μM LYRAL® and 300 μM test compound, HEK293T
Experimental: A dose response curve showing the activation of OR10J5 in response to the floral muguet compound 3-(4-hydroxy-4-methylpentyl)cyclohex-3-ene-1-carbaldehyde, 4-(4-hydroxy-4-methylpentyl)cyclohex-3-ene-1-carbaldehyde or a mixture thereof (sold under the tradename LYRAL®, hereinafter referred to as “LYRAL®”) is shown in FIG. 1. Using a cell-based assay, OR10J5 activity was tested in a HEK293T cell line wherein the endogenous chaperone RTP1 gene has been activated and the odorant receptor chaperone was expressed according to the methods disclosed in International Patent Application Publication No. WO2016/201153 A1. […]
as §2, with “An activation cell-based assay was used for the initial enhancer candidate identification as disclosed in WO2019122236.” left out, “62AM4PEJ). […]” for “62AM4PEJ).”
The resulting activation was then measured and compared to LYRAL® alone (defining the baseline of the enhancement assay). The quality of the HTS process was determined and the window variability and signal reliability were assessed by calculating the Z′ value of each plate. […]

Compound | enhancement of OR10J5 LYRAL® activation (true enhancer) [1] | other results
C/C=C/C=O [(E)-but-2-enal] | potent enhancement | –
CC(C)=CCC[C@@H](C)CC=O [(3R)-3,7-dimethyloct-6-enal] | potent enhancement | –
CCCCCCC=O [heptanal] | potent enhancement | α (cooperativity factor) (OR10J5 [2]): 3.2; Kb (OR10J5 [2]): 51 µM
CC(C)=CCCC(C)C=O (racemic) [2,6-dimethylhept-5-enal] | potent enhancement | α (cooperativity factor) (OR10J5 [2]): 4.1; Kb (OR10J5 [2]): 16 µM
CC(C)c1ccc(C=O)cc1 [4-Propan-2-ylbenzaldehyde] | potent enhancement | –
Cc1cccc(C=O)c1 [3-methylbenzaldehyde] | potent enhancement | –
CCCCCCCC=O [octanal] | potent enhancement | –
CC(C=O)c1ccccc1 (centres unmarked) [2-phenylpropanal] | potent enhancement | –
Cc1ccc2c(c1)CC(C)(CO)C2 (racemic) [(+−)-2,5-dimethyl-2-indanmethanol, reference compound] | – | agonist character at OR10J5 (OR10J5 [3]): partial agonist
O=Cc1ccc2c(c1)OCO2 [benzo[d][1,3]dioxole-5-carbaldehyde, reference compound] | – | EC50 fold shift of LYRAL® (potency increase) (OR10J5 [4]): 1.8 fold; EC50 fold shift of LYRAL® (potency increase) (Olfr16): 1.5 fold; EC50 fold shift of (+−)-2,5-dimethyl-2-indanmethanol (OR10J5 [3]; OR10J5, agonist + steady concentration of compound vs agonist alone): 2.0 fold
O=Cc1ccccc1 [benzaldehyde] | potent enhancement | –
CC1=CCCC2(C)OC2CCC(C)=CCC1 (centres unmarked) [trimethyl-13-oxabicyclo-[10.1.0]-trideca-4,8-diene] | – | inhibition of the OR10J5 response to LYRAL® [5]: decreased the response
CCOC(=O)C(=O)C(C)CC (racemic) [(+−)-ethyl 3-methyl-2-oxopentanoate] | – | inhibition of the OR10J5 response to LYRAL® [5]: decreased the response
CCc1ccc(C=O)cc1 [4-ethylbenzaldehyde] | potent enhancement | –
3,5,6-Trimethyl-3-Cyclohexene-1-Carbaldehyde + 2,4,6-Trimethyl-3-Cyclohexene-1-Carbaldehyde | potent enhancement | –
C=C1CC[C@@H]2O[C@]2(C)CC[C@@H]2[C@@H]1CC2(C)C [(−)-(1R,4R,6S,10S)-4,12,12-trimethyl-9-methylene-5-oxatricyclo[8.2.0.0^4,6]dodecane] | – | inhibition of the OR10J5 response to LYRAL® [5]: decreased the response
CCCCCCC/C=C/C=O [(E)-dec-2-enal] | potent enhancement | –
(+−)-3-(4-Methyl-3-penten-1-yl)-3-cyclohexene-1-carbaldehyde + (+−)-4-(4-Methyl-3-penten-1-yl)-3-cyclohexene-1-carbaldehyde | potent enhancement | –
CCCc1ccc2c(c1)OCC(=O)CO2 [7-propyl-2H,4H-1,5-benzodioxepin-3-one] | – | inhibition of the OR10J5 response to LYRAL® [5]: decreased the response
Cc1ccc(CC(C)C=O)cc1 (racemic) [2-methyl-3-(4-methylphenyl)propanal] | potent enhancement | –
COC(C)(C)CCCC(C)C=O (racemic) [6-methoxy-2,6-dimethylheptanal] | potent enhancement | –
CC1=CC(C)C(C=O)C(C)C1 (centres unmarked) [2,4,6-trimethyl-3-cyclohexene-1-carbaldehyde] | potent enhancement | –
C[C@@H]1C/C=C\CCCCCCCCCC(=O)C1 [compound 2] | – | OR10J5 olfactory receptor agonists among screen hits [6]: agonists
CCCCCC=O [hexanal] | potent enhancement | –
CCCCCC/C=C/C=O [(E)-non-2-enal] | potent enhancement | –
COC(=O)c1ccccc1/N=C/c1ccccc1 [compound 15] | – | OR10J5 olfactory receptor agonists among screen hits [6]: agonists
